Results from patent publication US20240166617A1, “PHOSPHOINOSITIDE 3 KINASE BETA INHIBITORS AND COMPOSITIONS AND METHODS THEREOF” (Geode Therapeutics Inc., priority 2021, published 2024).
Like-named read-outs stand apart in the source and are kept apart here.

System: phosphorylation of AKT in HCC70 cells
Test: Cellular assay: phosphorylation of AKT in HCC70 cells (western blotting)
Format: cell-based
Settings: Homo sapiens, HCC70, 1 h
Method: Cellular activity of PI3Kβ inhibitors was determined by quantifying the phosphorylation of AKT in HCC70 cells. AKT phosphorylated at Ser473 and Thr308 were measured using western blotting and specific primary antibodies from Cell Signaling (CST), Danvers, MA. On day 1, HCC70 cells (ATCC #CRL-2315) were seeded into Falcon 12-well cell Culture Plate (Corning #353043) at 100,000 cells per well, in 1 ml complete culture medium (RPMI-1640, GIBCO #11875093) containing 10% heat inactivated FBS (GIBCO #10438026), 1% Pen-Strep (GIBCO #15140122) and incubated at 37° AC, 5% CO2 overnight. On day 2, compound (500 nM) or DMSO (0.1%, Sigma Aldrich #8418) was added and cells were further incubated for 60 min at 37° AC, 5% CO2 in a total volume of 1 ml fresh medium.
At the end of the cell treatment period, media were removed by aspiration and adherent cells were lysed in 100 uL RIPA buffer (Sigma Aldrich #R0278). Equal volume (15 uL) of proteins was resolved by SDS-PAGE and transferred to PVDF (Millipore #IPFL00010) membrane for immunoblot analysis. Primary antibodies to the following proteins were used for immunoblotting: phosphor-AKT (Ser473) (CST #4060), phosphor-AKT (Thr308) (CST #2965), total AKT (CST #9272). Secondary goat anti-rabbit IgG fluorophore conjugated antibody (Invitrogen #A21109) was used to visualize the indicated proteins on an Odyssey CLx imaging system (Li-Cor). Quantification of band intensities was performed using Odyssey 3.0 software. Inhibition of Akt activity was calculated by band intensities using the formula: […]
Index was evaluated by % of AI. Data represent Index+(20˜60%), ++(60%˜80%), +++(80%˜90%), and ++++>90%.

[1] = HCC70 cells, compound 500 nM, 60 min, inhibition of Akt activity from band intensities, read-out: Index of AI (HCC70) p-AKT Thr 308
[2] = HCC70 cells, compound 500 nM, 60 min, inhibition of Akt activity from band intensities, read-out: Index of AI (HCC70) p-AKT ser 473

SMILES | inhibition at 0.5 µM [1] [%] | inhibition at 0.5 µM [2] [%] | inhibition at 0.5 µM (read-out: Index of AI (HCC70) p-AKT Thr 308) [%] | inhibition at 0.5 µM (read-out: Index of AI (HCC70) p-AKT ser 473) [%]
C[C@H]1Cc2c(F)cc(F)cc2N1Cc1cc(C(=O)N(C)C)cc2c(=O)cc(N3CCOCC3)oc12 (single isomer, unassigned) [Compound 64] | > 90 | > 90 | – | –
C[C@@H]1Cc2c(F)cc(F)cc2N1Cc1cc(C(=O)N(C)C)cc2c(=O)cc(N3CCOCC3)oc12 (single isomer, unassigned) [Compound 65] | 20 to 60 | 20 to 60 | – | –
C[C@H]1Cc2c(F)cccc2N1Cc1cc(C(=O)N(C)C)cc2c(=O)cc(N3CCOCC3)oc12 (single isomer, unassigned) [Compound 102] | > 90 | > 90 | – | –
O=c1cc(N2CCOCC2)oc2c(CNc3cc(F)cc(F)c3)cc(N3CCOCC3)cc12 [Compound 1, 8-(((3,5-difluorophenyl)amino)methyl)-2,6-dimorpholino-4H-chromen-4-one] | 60 to 80 | 60 to 80 | – | –
CN(C)c1cc(CNc2cc(F)cc(F)c2)c2oc(N3CCOCC3)cc(=O)c2c1 [Compound 2, 8-(((3,5-difluorophenyl)amino)methyl)-6-(dimethylamino)-2-morpholino-4H-chromen-4-one] | 60 to 80 | 60 to 80 | – | –
N#Cc1cc(CNc2cc(F)cc(F)c2)c2oc(N3CCOCC3)cc(=O)c2c1 [Compound 3, 8-(((3,5-difluorophenyl)amino)methyl)-2-morpholino-4-oxo-4H-chromene-6-carbonitrile] | 60 to 80 | 60 to 80 | – | –
CCOc1cc(CNc2cc(F)cc(F)c2)c2oc(N3CCOCC3)cc(=O)c2c1 [Compound 4, 8-(((3,5-difluorophenyl)amino)methyl)-6-ethoxy-2-morpholino-4H-chromen-4-one] | 60 to 80 | 60 to 80 | – | –
C#Cc1cc(CNc2cc(F)cc(F)c2)c2oc(N3CCOCC3)cc(=O)c2c1 [Compound 5, 8-(((3,5-difluorophenyl)amino)methyl)-6-ethynyl-2-morpholino-4H-chromen-4-one] | – | – | 60 to 80 | 60 to 80
O=c1cc(N2CCOCC2)oc2c(CNc3cc(F)cc(F)c3)cc(C3CC3)cc12 [Compound 6, 6-cyclopropyl-8-(((3,5-difluorophenyl)amino)methyl)-2-morpholino-4H-chromen-4-one] | 60 to 80 | 60 to 80 | – | –
CN(C)C(=O)Nc1cc(CNc2cc(F)cc(F)c2)c2oc(N3CCOCC3)cc(=O)c2c1 [Compound 7, 3-(8-(((3,5-difluorophenyl)amino)methyl)-2-morpholino-4-oxo-4H-chromen-6-yl)-1,1-dimethylurea] | 60 to 80 | 60 to 80 | – | –
CC(=O)Nc1cc(CNc2cc(F)cc(F)c2)c2oc(N3CCOCC3)cc(=O)c2c1 [Compound 8, N-(8-(((3,5-difluorophenyl)amino)methyl)-2-morpholino-4-oxo-4H-chromen-6-yl)acetamide] | 60 to 80 | 60 to 80 | – | –
CC(=O)N(C)c1cc(C(C)Nc2cc(F)cc(F)c2)c2oc(N3CCOCC3)cc(=O)c2c1 (centres unmarked) [Compound 9, N-(8-(1-((3,5-difluorophenyl)amino)ethyl)-2-morpholino-4-oxo-4H-chromen-6-yl)-N-methylacetamide] | 80 to 90 | 80 to 90 | – | –
CCC(=O)Nc1cc(C(C)Nc2cc(F)cc(F)c2)c2oc(N3CCOCC3)cc(=O)c2c1 (centres unmarked) [Compound 11, N-(8-(1-((3,5-difluorophenyl)amino)ethyl)-2-morpholino-4-oxo-4H-chromen-6-yl)propionamide] | > 90 | > 90 | – | –
CC(Nc1cc(F)cc(F)c1)c1cc(N=C(N)N)cc2c(=O)cc(N3CCOCC3)oc12 (centres unmarked) [Compound 14, 2-(8-(1-((3,5-difluorophenyl)amino)ethyl)-2-morpholino-4-oxo-4H-chromen-6-yl)guanidine] | 20 to 60 | 20 to 60 | – | –
CC(Nc1cc(F)cc(F)c1)c1cc(S(=O)(=O)N2CC(N)C2)cc2c(=O)cc(N3CCOCC3)oc12 (centres unmarked) [Compound 17, 6-((3-aminoazetidin-1-yl)sulfonyl)-8-(1-((3,5-difluorophenyl)amino)ethyl)-2-morpholino-4H-chromen-4-one] | 60 to 80 | 60 to 80 | – | –
CC(Nc1cc(F)cc(F)c1)c1cc(NC2=NCCN2)cc2c(=O)cc(N3CCOCC3)oc12 (centres unmarked) [Compound 20, 8-(1-((3,5-difluorophenyl)amino)ethyl)-6-((4,5-dihydro-1H-imidazol-2-yl)amino)-2-morpholino-4H-chromen-4-one] | 60 to 80 | 60 to 80 | – | –
CC(Nc1cc(F)cc(F)c1)c1cc(NC(=O)CC#N)cc2c(=O)cc(N3CCOCC3)oc12 (centres unmarked) [Compound 22, 2-cyano-N-(8-(1-((3,5-difluorophenyl)amino)ethyl)-2-morpholino-4-oxo-4H-chromen-6-yl)acetamide] | > 90 | > 90 | – | –
C/C(O)=C(\C#N)C(=O)Nc1cc(C(C)Nc2cc(F)cc(F)c2)c2oc(N3CCOCC3)cc(=O)c2c1 (centres unmarked) [Compound 23, (Z)-2-cyano-N-(8-(1-((3,5-difluorophenyl)amino)ethyl)-2-morpholino-4-oxo-4H-chromen-6-yl)-3-hydroxybut-2-enamide] | 60 to 80 | 60 to 80 | – | –
CC(Nc1cc(F)cc(F)c1)c1cc(CC(=O)N(C)C)cc2c(=O)cc(N3CCOCC3)oc12 (centres unmarked) [Compound 24, 2-(8-(1-((3,5-difluorophenyl)amino)ethyl)-2-morpholino-4-oxo-4H-chromen-6-yl)-N,N-dimethylacetamide] | > 90 | > 90 | – | –
CC(Nc1cc(F)cc(F)c1)c1cc(C(=O)N2CC3(C2)CS(=O)(=O)C3)cc2c(=O)cc(N3CCOCC3)oc12 (centres unmarked) [Compound 28, 8-(1-((3,5-difluorophenyl)amino)ethyl)-6-(2,2-dioxido-2-thia-6-azaspiro[3.3]heptane-6-carbonyl)-2-morpholino-4H-chromen-4-one] | 60 to 80 | 60 to 80 | – | –
CCC(Nc1cc(F)cc(F)c1)c1cc(C(=O)N(C)C)cc2c(=O)cc(N3CCOCC3)oc12 (centres unmarked) [Compound 31, 8-(1-((3,5-difluorophenyl)amino)propyl)-N,N-dimethyl-2-morpholino-4-oxo-4H-chromene-6-carboxamide] | > 90 | > 90 | – | –
CN(C)C(=O)c1cc(CN2CCc3cccc(Cl)c32)c2oc(N3CCOCC3)cc(=O)c2c1 [Compound 36, 8-((7-chloroindolin-1-yl)methyl)-N,N-dimethyl-2-morpholino-4-oxo-4H-chromene-6-carboxamide] | > 90 | > 90 | – | –
CC(c1cc(C(=O)N(C)C)cc2c(=O)cc(N3CCOCC3)oc12)N1CCc2c(F)cc(F)cc21 (centres unmarked) [Compound 37, 8-(1-(4,6-difluoroindolin-1-yl)ethyl)-N,N-dimethyl-2-morpholino-4-oxo-4H-chromene-6-carboxamide] | 80 to 90 | 80 to 90 | – | –
CN(C)CCN(C)C(=O)c1cc(CN2CCc3c(F)cc(F)cc32)c2oc(N3CCOCC3)cc(=O)c2c1 [Compound 40, 8-((4,6-difluoroindolin-1-yl)methyl)-N-(2-(dimethylamino)ethyl)-N-methyl-2-morpholino-4-oxo-4H-chromene-6-carboxamide] | > 90 | > 90 | – | –
O=C(c1cc(CN2CCc3c(F)cc(F)cc32)c2oc(N3CCOCC3)cc(=O)c2c1)N1CCOCC1 [Compound 41, 8-((4,6-difluoroindolin-1-yl)methyl)-6-(morpholine-4-carbonyl)-2-morpholino-4H-chromen-4-one] | 80 to 90 | 80 to 90 | – | –
CN(C)C1CCN(C(=O)c2cc(CN3CCc4c(F)cc(F)cc43)c3oc(N4CCOCC4)cc(=O)c3c2)C1 (centres unmarked) [Compound 43, 8-((4,6-difluoroindolin-1-yl)methyl)-6-(3-(dimethylamino)pyrrolidine-1-carbonyl)-2-morpholino-4H-chromen-4-one] | 80 to 90 | 80 to 90 | – | –
O=C(c1cc(CN2CCc3c(F)cc(F)cc32)c2oc(N3CCOCC3)cc(=O)c2c1)N1CCC1 [Compound 45, 6-(azetidine-1-carbonyl)-8-((4,6-difluoroindolin-1-yl)methyl)-2-morpholino-4H-chromen-4-one] | > 90 | > 90 | – | –
CN(C)C1CN(C(=O)c2cc(CN3CCc4c(F)cc(F)cc43)c3oc(N4CCOCC4)cc(=O)c3c2)C1 [Compound 46, 8-((4,6-difluoroindolin-1-yl)methyl)-6-(3-(dimethylamino)azetidine-1-carbonyl)-2-morpholino-4H-chromen-4-one] | 80 to 90 | 80 to 90 | – | –
